Experimental data: patent US20210260102A1, “TUNABLE IMMUNE RESPONSIVE BIODEGRADABLE ARGININE-BASED POLY(ESTER AMIDE)S AND METHODS OF MAKING AND USING SAME” (Cornell University, priority 2018, published 2021)

Key:
[1] = tested on: RAW 264.7 cells; assay: NO production of macrophages (Griess reagent); type: cell-based, murine; details: CAM (LPS+IFN-γ), 24 h
[2] = tested on: RAW 264.7 cells; assay: Arginase activity assay of treated macrophages; details: 2 mg/mL, 24 h
Experimental: 4×10^5 RAW 264.7 cells in each well were incubated in 400 μL DMEM media contains 10% FBS in 24 well plates for 24 h. […] For CAM or AAM group, treatments contained either 100 U/mL recombinant mouse interferon-γ (IFN-γ, 1.25×10^7 U/mg, Shenandoah Biotechnology, PA) plus 100 ng/mL lipopolysaccharide (LPS, Sigma-Aldrich) or 20 ng/mL recombinant mouse interleukin-4 (IL-4, Shenandoah Biotechnology, PA) respectively to induce different activation phenotype. Resting Macrophages, CAM and AAM incubated in DMEM contains 5% FBS without treatments were used as controls.
The arginase activity assay is tested colorimetrically. The cells were washed with PBS and lysed by 200 μL 0.2% Triton X-100 in 20 mM Tris-HCl, pH 7.5 containing 20 g pepstatin A, 20 μg aprotinin and 20 μg leupeptin as protease inhibitors. After the cell was lysed, 200 μL 10 mM MnCl2 was added and the enzyme was activated for 10 minutes at 55° C. 100 μL aliquot of the activated lysate was mixed with 100 μL 0.5 M Arg and incubated at 37° C. for 1 h. […] After being cooled to room temperature, the absorbance of 200 μL mixture solution at 540 nm was tested in 96 well plates. […] The NO production and the arginase activity in three replicate wells of each condition were tested and the mean value was calculated with standard deviations.

[3] = neutral pH; cited from earlier work

Row | Compound | NO production of CAM ([1]; 1 mg/mL) [µM] | NO production of CAM ([1]; 2 mg/mL) [µM] | arginase activity of CAM [2] [U] | water solubility [3] [µg/mL]
1 | N=C(N)NCCC[C@H](N)C(=O)O [Arg, L-arginine] | 42.5 ± 2.6 | 50.7 ± 1.1 | 17.9±0.7 | 
2 | N-nitro-L-arginine [NOArg] |  |  |  | ~870
